# Reference: paper PMC11984586, “A novel spider toxin as a selective antagonist of the Kv1 subfamily of voltage-gated potassium channels through gating modulation” (The Journal of Biological Chemistry, 2025)
# Bridge positions count the residues as written; N and C are the ends. Peptide text beside a SMILES is read from it.
# Tests used:
# [1] = biological target: T1, Kv1.2/Y266A (Homo sapiens, UniProt P16389, Y266A); experiment: Whole-cell patch clamp, Tyr-to-Ala mutant homologous to Kv1.3 Y339; format: cell-based; details: +30 mV, mean ± SD, n = 4–6
# T1 construct: expressed in transfected cells; host or cells: CHO-K1
# T1 sequence (P16389 whole entry Y266A): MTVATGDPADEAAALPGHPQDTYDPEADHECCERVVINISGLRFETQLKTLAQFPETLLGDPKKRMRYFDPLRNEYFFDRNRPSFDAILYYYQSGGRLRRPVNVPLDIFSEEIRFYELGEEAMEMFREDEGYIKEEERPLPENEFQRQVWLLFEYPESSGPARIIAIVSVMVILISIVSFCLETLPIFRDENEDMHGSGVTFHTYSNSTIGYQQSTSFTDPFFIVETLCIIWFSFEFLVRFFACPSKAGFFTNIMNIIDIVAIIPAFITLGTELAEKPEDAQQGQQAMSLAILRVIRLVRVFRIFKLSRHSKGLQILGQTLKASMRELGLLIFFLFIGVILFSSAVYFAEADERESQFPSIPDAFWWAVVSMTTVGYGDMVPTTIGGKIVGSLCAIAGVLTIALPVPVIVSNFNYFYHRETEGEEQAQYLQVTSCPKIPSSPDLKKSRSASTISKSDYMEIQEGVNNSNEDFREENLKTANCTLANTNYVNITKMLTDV
# From the text: Building on the identification of key amino acid residues in Kv1.3 channel that interact with MrVIII through alanine-scanning mutagenesis, we extended our analysis to explore these residues across other Kv1 subfamily channels. […] However, MrVIII retained substantial inhibitory potency on Kv1.2/Y266A mutant, albeit without fully blocking the channel current. […] The profound reduction in MrVIII's effect across homologous mutants supports the idea that it binds to a conserved region.
# The cDNA of hKv1.1, hKv1.2, hKv1.3, rKv1.4, hKv1.5, mKv1.6, and hKv1.7 were subcloned into mammalian expression vectors pcDNA3.1 or pCMV-blank vectors, as well as other plasmids described previously ([35]). Channel mutants were generated by site-directed mutations. Briefly, the parental channel plasmid was amplified using a pair of oppositely directed primers harboring the designed mutation site, with KOD Fx (TOYOBO Co, Ltd). The resulting PCR mix was treated with FastDigest DpnI (Thermo Fisher Scientific) to remove the methylated template. […]
# CHO-K1 cells were selected for expressing Kv channels due to their lack of endogenous Kv channels, while HEK293 or ND7/23 cells were used for Nav and Cav channel expression. […] After 4 to 6 h transfection, cells were seeded onto poly-lysine–coated coverslips, and 24 to 36 h later, transfected cells were ready for patch-clamp analysis. […]
# [2] = system: Kv1.3/1.1 S1-S2 chimeric channel; experiment: Whole-cell patch clamp, chimeric channel; format: cell-based, human; details: +30 mV, 500 ms, holding −80 mV, mean ± SD, n = 4-5, read-out: IC50, Kv1.3/1.1 S1-S2 current
# From the text: To investigate the structural determinants underlying the differential regulatory effects of MrVIII on Kv1 channels, we employed a chimeric channel strategy. Using Kv1.3 as the template, the S1-S2, S3-S4, and S5-S6 transmembrane helices and their respective linkers from Kv1.1 were inserted to generate chimeras, generating the Kv1.3/1.1 S1-S2, Kv1.3/1.1 S3-S4, and Kv1.3/1.1 S5-S6 chimeric channels. […] These findings indicate that the S3-S4 is the key determinant for the differential inhibition of Kv1.1 and Kv1.3 by MrVIII. To further validate this conclusion, we constructed a reverse chimeric channel using Kv1.1 as the template, inserting the corresponding regions from Kv1.3 into Kv1.1. […] This finding more directly illustrates the exchange of the channel's voltage-dependence phenotype in toxin inhibition by swapping this S3-S4 between Kv1.1 and Kv1.3. […] In addition to confirming the differential role of S3-S4 between Kv1.1 and Kv1.3, we also substituted the S3-S4 of Kv1.4 and Kv1.7 into Kv1.3 to analyze MrVIII's inhibition profile. […] The IC50 for Kv1.3/1.7 S3-S4 could not be fitted, and inhi%(495 ms) was only 23.1 ± 10.0% (Fig. S2, E and F).
# The cDNA of hKv1.1, hKv1.2, hKv1.3, rKv1.4, hKv1.5, mKv1.6, and hKv1.7 were subcloned into mammalian expression vectors pcDNA3.1 or pCMV-blank vectors, as well as other plasmids described previously ([35]). Channel mutants were generated by site-directed mutations. Briefly, the parental channel plasmid was amplified using a pair of oppositely directed primers harboring the designed mutation site, with KOD Fx (TOYOBO Co, Ltd). The resulting PCR mix was treated with FastDigest DpnI (Thermo Fisher Scientific) to remove the methylated template. Ten microliters of the digested product was then used to transform 100 μl E. coli DH5α competent cells. Transformants were randomly picked and sequenced to confirm the presence of the intended mutation.
# CHO-K1 cells were selected for expressing Kv channels due to their lack of endogenous Kv channels, while HEK293 or ND7/23 cells were used for Nav and Cav channel expression. CHO-K1 cells were cultured in a Dulbecco's modified Eagle's medium/Ham's F-12 nutrient mixture (DMEM-F12) medium, and HEK293T and ND7/23 cells in DMEM medium, all supplemented with 10% fetal bovine serum and 1% penicillin-streptomycin (all from Gibco, Thermo Fisher Scientific, Inc) under standard conditions (37 °C, 5% CO2, and saturated humidity). These cell lines were purchased from Stem Cell Bank, Chinese Academy of Sciences. Channel plasmids were cotransfected with pEGFP-N1 (encoding GFP) into the respective cells using lipofectamine 2000, following the manufacturer's instructions (Invitrogen, Thermo Fisher Scientific, Inc.). Nav1.9-GFP plasmid was transfected into ND7/23 using the X-tremeGENE HP DNA Transfection Reagent (Roche). After 4 to 6 h transfection, cells were seeded onto poly-lysine–coated coverslips, and 24 to 36 h later, transfected cells were ready for patch-clamp analysis.
# Patch clamp experiments were conducted using an electrophysiology platform comprising a MultiClamp 700B amplifier and an Axon Digidata 1550 AD/DA convertor (Axon Instruments). Data acquisition was performed with pClamp 10.5 software (Axon Instruments). All experiments were performed at room temperature.
# For Kv current recordings, the bath solution contained (in mM) the following: 140 NaCl, 5 KCl, 1 MgCl2, 2 CaCl2, 10 glucose, and 10 Hepes (pH 7.3, adjusted with NaOH), and the pipette solution contained (in mM) the following: 140 KCl, 2.5 MgCl2, 11 EGTA, and 10 Hepes (pH 7.3, adjusted with KOH). Series resistance was maintained below 10 MΩ and compensated to 80%. Concentration–response curves were fitted by the Hill equation to determine the toxin's potency. Whole cell conductance (G) at each depolarizing voltage (V) was determined using the equation: G = I/(V−Vrev), where I is the current amplitude, and Vrev is the reversal potential. […]
smiles,measurement,setting,value
"CC[C@H](C)[C@@H]1NC(=O)[C@H](Cc2ccc(O)cc2)NC(=O)[C@H](CCC(N)=O)NC(=O)[C@@H]2CCCN2C(=O)[C@@H]2CSSC[C@H](NC(=O)[C@H](C)NC(=O)[C@H](CO)NC(=O)[C@H](CCC(=O)O)NC(=O)[C@H](CCC(=O)O)NC(=O)[C@@H](N)[C@@H](C)O)C(=O)NCC(=O)NCC(=O)N[C@@H](Cc3ccccc3)C(=O)N[C@@H](CC(N)=O)C(=O)N[C@@H](C)C(=O)N[C@@H](CCCNC(=N)N)C(=O)N[C@H]3CSSC[C@H](NC1=O)C(=O)N[C@@H](CCCCN)C(=O)NCC(=O)N[C@@H](Cc1c[nH]c4ccccc14)C(=O)N[C@@H](CCCNC(=N)N)C(=O)N[C@@H]([C@@H](C)O)C(=O)N[C@@H](CCCCN)C(=O)N[C@@H](CCCNC(=N)N)C(=O)N[C@H](C(=O)N[C@@H](CC(C)C)C(=O)N[C@@H](CC(N)=O)C(=O)N1CCC[C@H]1C(=O)O)CSSC[C@H](NC(=O)[C@H](CCCCN)NC(=O)[C@H](Cc1c[nH]cn1)NC(=O)[C@H](CC(C)C)NC(=O)[C@@H]1CCCN1C3=O)C(=O)N2 [MrVIII] (H-TEESACGGFNARCPLHKCCPQYICKGWRTKRCLNP-OH; disulfide 6-19, 13-24, 18-32; N-terminus and C-terminus assumed)",IC50,[1]; current at 50 ms,418 ± 41.2 nM
same,"inhi%(495 ms), Kv1.2/Y266A current",[1]; current at 495 ms,36.9 ± 14.1%
same,IC50,[2],1.9 ± 1.1 nM
